Data on five compounds can be found in EP0089940A1, “Compositions for therapeutic or diagnostic use containing oligosaccharides” (priority 1982, dated 1983).

The target of one assay is T1, K88 fimbriae (Escherichia coli, UniProt P14190).
T1 construct: In the experiments I^125-labelled K88 fimbriae at a concentration of 0.5 mg/ml in PBS were used; made in house; host or cells: E. coli O149 K88+ (native fimbriae isolated from the bacteria)
Kind of assay: Inhibition of adherence of I125-labelled K88-fimbriae to brush border membranes from pig small intestine. The assay is classed as binding, E.coli. As to conditions: for inhibition at 5000 µg/mL: read-out: inhibited the adherence of K88 fimbriae to the brush border membranes; for inhibited the adherence of K88 fimbriae to the brush border membranes: 0.5 ml oligosaccharide solution 5 mg/ml in PBS, 0.5 ml I125-labelled K88 fimbriae 0.5 mg/ml, 1 ml brush border membranes 2 · 10^6 cells/ml, 37°C. How it is done: In the experiments I^125-labelled K88 fimbriae at a concentration of 0.5 mg/ml in PBS were used. Moreover, brush border membranes prepared according to Sellwood et al at a concentration of 2 · 10^6 cells/ml in PBS were used.
Oligosaccharides tested for their inhibiting ability were dissolved in PBS to a concentration of 5 mg/ml.
In the inhibition tests 0.5 ml I125-labelled K88 fimbriae was incubated with 0.5 ml oligosaccharide solution at 37°C for 30 minutes, 1 ml of the suspension of brush border membranes being then added. After incubation for another 60 minutes at 37°C the mixture was centrifuged for 15 minutes at 600 x g, the radioactivity being then measured in the supernatant. As a control 1 ml of PBS was used.

Another assay relates to E.coli. Kind of assay: Disinfection: removal of bacteria from an infected surface. As to conditions: 0.1 percent by weight aqueous solution applied by cotton pad onto a surface infected by E.coli. How it is done:
By disinfection is here primarily intended removal of bacteria from a surface, for example a wound.
A 0.1 percent by weight aqueous solution of the compound a-D-Galp-(1-3)-D-Gal is prepared and applied by means of a cotton pad onto a surface infected by E.coli.

T1 sequence (P14190 22-283 limits assumed): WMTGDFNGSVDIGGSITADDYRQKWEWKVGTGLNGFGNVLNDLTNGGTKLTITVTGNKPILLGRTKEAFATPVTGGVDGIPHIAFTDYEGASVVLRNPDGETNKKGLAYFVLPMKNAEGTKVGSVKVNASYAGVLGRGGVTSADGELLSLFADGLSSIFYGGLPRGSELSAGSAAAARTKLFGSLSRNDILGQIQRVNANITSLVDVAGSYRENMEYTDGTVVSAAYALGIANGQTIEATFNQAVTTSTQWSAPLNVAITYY

In the case of `OC[C@H]1O[C@H](O[C@H]2[C@@H](O)[C@@H](CO)OC(O)[C@@H]2O)[C@H](O)[C@@H](O)[C@H]1O` (stereo partly drawn) [α-D-Galp-(1-3)-D-Gal], the inhibition at 5000 µg/mL at K88 fimbriae turned out to be 70%. Also, the “removal of the bacterium from the surface” value with E.coli was “effective removal”. Regarding `OC[C@H]1O[C@H](OC[C@H]2OC(O)[C@H](O)[C@@H](O)[C@H]2O)[C@H](O)[C@@H](O)[C@H]1O` (stereo partly drawn) [α-D-Galp-(1-6)-D-Gal, reference compound], the “inhibited the adherence of K88 fimbriae to the brush border membranes” value against K88 fimbriae was “inactive”. Same read-out and setting: under `OC[C@H]1O[C@H](O[C@@H]2[C@H](O)[C@@H](O)C(O)O[C@@H]2CO)[C@H](O)[C@@H](O)[C@H]1O` (stereo partly drawn) [α-D-Galp-(1-4)-D-Gal, reference compound] stands “inactive”. Consider `OC[C@H]1O[C@H](O[C@H]2[C@@H](O)[C@@H](CO)O[C@H](O[C@H]3[C@@H](O)[C@@H](CO)OC(O)[C@@H]3O)[C@@H]2O)[C@H](O)[C@@H](O)[C@H]1O` (stereo partly drawn) [α-D-Galp-(1-3)-α-D-Galp-(1-3)-D-Gal], for which the inhibition at 5000 µg/mL on K88 fimbriae stood at 79%. As for `OC[C@H]1O[C@H](O[C@H]2[C@@H](O)[C@@H](CO)O[C@H](O[C@H]3[C@@H](O)[C@@H](CO)O[C@H](O[C@H]4[C@@H](O)[C@@H](CO)OC(O)[C@@H]4O)[C@@H]3O)[C@@H]2O)[C@H](O)[C@@H](O)[C@H]1O` (stereo partly drawn) [α-D-Galp-(1-3)-α-D-Galp-(1-3)-α-D-Galp-(1-3)-D--Gal], at K88 fimbriae, the inhibition at 5000 µg/mL came out at 73%.
